Test results taken from patent US20210267978A1, “NANOPARTICLE FORMULATIONS OF IKE AND METHODS OF USE THEREOF” (The Trustees of Columbia University in the City of New York, priority 2018, published 2021).
Read-outs that look alike come from different tables or passages of the source.

Tests used:
[1] = Pharmacokinetic analysis in mice with three administration routes (plasma, LC-MS); type: in vivo; settings: NOD/SCID mice; for AUC(0-t) / Cmax / Tmax / half-life / concentration at 8 h: mouse; for concentration at 8 h: read-out: Clast
Description: NOD/SCID mice 12-weeks of age and ˜28 g weight were weighed before injection and divided into groups of 3 mice per cage. IKE was dissolved in 5% DMSO/95% Hank's Balanced Salt Solution (HBSS) (Thermo Fisher Scientific, 14025076), pH 4, to create a 5 mg/mL solution. 5% DMSO/95% HBSS at pH 4 solution (Vehicle 1) without IKE was used as vehicle. The solution was sterilized using a 0.22 μm Steriflip filter unit (Thomas Scientific 1189Q46). Mice were dosed using three different routes, IP and PO with 50 mg/kg IKE, and IV with 17 mg/kg IKE. Samples were collected at 0, 1, 3, 4, and 8 h from three mice per time point. Additionally, three mice per group were used as control by administration with equivalent amount of vehicle 1 by IP, PO, and IV, and samples were collected at 8 h. At the appropriate time, mice were sacrificed by CO2 asphyxiation for 3 min and ˜0.5 mL of blood was collected via cardiac puncture. Blood was immediately put into K3 EDTA micro tube (SARSTEDT 41.1504.105) and placed on ice. Samples were centrifuged for 10 min at 2,100×g at 4° C., plasma was then transferred to a clean tube. Plasma samples were flash frozen in liquid nitrogen and stored at −80° C. IKE was extracted from plasma by adding 900 μL acetonitrile to 100 μL plasma. Samples were mixed for at least 5 min by rotating at room temperature and were sonicated prior to […] for 10 min at 4,000×g and 4° C. The supernatant was removed and dried on a GeneVac evaporator overnight on an HPLC setting. After drying, the samples were resuspended in 100 μL of methanol and analyzed on the liquid chromatography mass spectrometry (LC-MS), with each sample analyzed twice. Quality control standard samples were prepared by dissolving IKE in 100 μL water and extraction with the same procedures to ensure that the extraction was efficient. LC-MS analysis was performed on a platform comprising a Thermo Scientific Dionex Ultimate 3000RS controlled by Chromeleon (Dionex) and a Bruker amazon SL ESI ion-trap mass spectrometer.
Chromatographic separation was performed at 20° C. on Agient Eclipse Plus C18 column (2.1×50 mm, 3.5 μm) at 20° C. over a 12 minute gradient elution. Mobile phase A consisted of water with 0.1% acetic acid v/v and mobile phase B was methanol with 0.1% acetic acid v/v. After injection, the gradient was held at 80% mobile phase A for 1 min. The gradient was then ramped in a linear fashion to 80% mobile phase over 0.5 min. Over the next 3.5 min, the gradient was ramped in linear fashion to 100% mobile phase B and held at 100% mobile phase B for 3.25 min. The gradient was then ramped in a linear fashion to 80% mobile phase over 0.5 min and held there for the duration of the run. The flow rate was set to 400 μL/min and injection volumes were 5 μL. The retention time for IKE in this gradient was 2.8 min.
Mass spectrometry analysis was performed on a Bruker Amazon SL (Billerca, MA) in positive ESI mode. Trap Control was used to control the ESI settings with the inlet capillary held at −4500 V and the end plate offset at −500 V. Nitrogen was used as the desolvation gas. Hystar v 3.2 was used to integrate the UHPLC and MS applications, and data analysis was performed with the Compass DataAnalysis software. The base peak chromatogram at m/z 655.2 with a width of ±0.1 was integrated and peak area quantified by standard curve.
Pharmacokinetics (PK) of IKE was assessed using Prism fitted with lognormal of one phase exponential decay.

[2] = IKE efficacy study, mouse weight; type: in vivo, NCG mice; settings: 14 days, starting from day 9
Description: IKE was dissolved in 5% DMSO/95% HBSS at pH 4 to create a 4 mg/mL solution. 5% DMSO/95% HBSS at pH 4 was used as vehicle 1. IKE PEG-PLGA nanoparticles and unfunctionalized PEG-PLGA nanoparticles (without IKE loading) (vehicle 2) prepared with a NanoAssemblr were dialyzed with deionized water overnight, the water was changed at least twice. Dialyzed IKE-PEG-PLGA nanoparticles and unfunctional PEG-PLGA nanoparticles were concentrated by Amicon Ultra-15 Centrifugal Filter Units to create a solution with 80 mg/mL PEG-PLGA nanoparticles. All above solutions were sterilized by filter through a 0.2 μm syringe filter.
NCG mice, 6-weeks old, were injected with 10 million SUDHLO-6 cells subcutaneously. […] Tumor volume was measured daily with electronic caliper and calculated using the formula: 0.5×length×width^2. […] Tumor volume change was analyzed in Prism using one-way ANOVA. Tumor tissues were analyzed as described in the RT-qPCR, immunofluorescence, TBARS, and lipidomics sections below.
We investigated the efficacy of IKE in vivo in male NCG mice bearing SUDHL6 subcutaneous xenografts. […] During the experimental period, mouse weight and tumor volume were measured daily to determine IKE's antitumor effect and possible toxicity. Tumor growth was calculated as the fold change relative to original tumor volume on day 0 before the first dose (FIG. 4C). […]

- Tlast ([1]; IP, 50 mg/kg IKE): 8 h
- Tlast ([1]; IV, 17 mg/kg IKE): 8 h
- Tlast ([1]; PO, 50 mg/kg IKE): 8 h
- AUC(0-t) ([1]; IP, 50 mg/kg IKE): 53900 ng·h/mL
- Cmax ([1]; IP, 50 mg/kg IKE): 19500 ng/mL
- Tmax ([1]; IP, 50 mg/kg IKE): 18.6 min
- half-life ([1]; IP, 50 mg/kg IKE): 109 min
- concentration at 8 h ([1]; IP, 50 mg/kg IKE): 1530 ng/mL
- AUC(0-t) ([1]; IV, 17 mg/kg IKE): 17000 ng·h/mL
- Cmax ([1]; IV, 17 mg/kg IKE): 11400 ng/mL
- Tmax ([1]; IV, 17 mg/kg IKE): 0 min
- half-life ([1]; IV, 17 mg/kg IKE): 78.6 min
- concentration at 8 h ([1]; IV, 17 mg/kg IKE): 16 ng/mL
- AUC(0-t) ([1]; PO, 50 mg/kg IKE): 5720 ng·h/mL
- Cmax ([1]; PO, 50 mg/kg IKE): 5200 ng/mL
- Tmax ([1]; PO, 50 mg/kg IKE): 43.2 min
- half-life ([1]; PO, 50 mg/kg IKE): 57.6 min
- concentration at 8 h ([1]; PO, 50 mg/kg IKE): 48 ng/mL
- mouse weight ([2]; 23 mg/kg daily): weight loss
- mouse weight ([2]; 40 mg/kg daily): weight loss
SMILES: CC(C)Oc1ccc(C(=O)Cn2ccnc2)cc1-n1c(CN2CCN(C(=O)COc3ccc(Cl)cc3)CC2)nc2ccccc2c1=O [IKE, Imidazole ketone erastin]
